Consider 23 compounds from patent publication US10189859B2, “Derivatives of 6-(2,3-dichlorophenyl)-1,2,4-triazin-5-amine” (Nektar Therapeutics, priority 2013, dated 2019).

Data set [1] deals with Nav1.7 sodium channels (human SCN9A gene) (Homo sapiens (Human), UniProt Q15858). Briefly: Automated patch clamp (IonWorks Barracuda) of Nav1.7 stably expressed in CHO cells. The class given is cell-based. On the procedure: The potencies of the compounds provided herein to block specific Na+ channels was measured using automated patch clamp electrophysiologically of Nav1.7 sodium channels (human SCN9A gene) stably expressed in CHO cells using the IonWorks™ Barracuda system. Currents were measured from the whole cell patch configuration. From a holding potential of −90 mV, membranes were subjected to a 200 ms pre-pulse to −120 mV, then pulsed to 0 mV to measure blockade of the tonic (resting) state. Inactivated state block was elicited by repolarization to −100 mV (20 ms pulse duration), followed by depolarization to 0 mV (20 ms pulse duration). Peak inward Na+ currents were measured in the presence of vehicle or various concentrations of the test compound to determine the percent block of current. Concentration-response relationships were used to calculate IC50 values for the illustrative compounds.

A short description of data set [2]: Pharmacokinetics after intravenous or oral dosing, plasma LC/MS/MS. The class given is in vivo. The note with it: fasted male Sprague Dawley rats. On the procedure: Fasted, male Sprague Dawley rats were dosed intravenously or orally. Blood samples were collected at pre-determined time points and plasma was separated. Test article concentrations were determined in plasma by a LC/MS/MS method. Non compartmental analysis was performed to estimate the area under the plasma concentration vs. time curve (AUC). Clearance parameters (CL), bioavailabilities (F) and half-lives were calculated.

The next data set concerns AFP model. Briefly: AFP animal model. It is filed as in vivo. The note with it: AFP. An excerpt: The efficacy of the compounds when evaluated in additional well-known animal models, AFP, RR, and hyperalgesia, was also explored.
Setting [3] is: read-out: Inactivated state IC50.
Where [4] appears, read: inactivated state block, CHO cells, read-out: Inactivated state IC50.
Where [5] appears, read: tonic (resting) state block, CHO cells, read-out: Tonic state IC50.

“And” between values parts separate entries of the source, which are not always exact repeats. Equal values may be shown once. Where a name gives a salt, the structure may show the parent alone. Read-outs that look alike come from different tables or passages of the source.

Nav1.7 sodium channels (human SCN9A gene), sequence (Q15858 whole entry): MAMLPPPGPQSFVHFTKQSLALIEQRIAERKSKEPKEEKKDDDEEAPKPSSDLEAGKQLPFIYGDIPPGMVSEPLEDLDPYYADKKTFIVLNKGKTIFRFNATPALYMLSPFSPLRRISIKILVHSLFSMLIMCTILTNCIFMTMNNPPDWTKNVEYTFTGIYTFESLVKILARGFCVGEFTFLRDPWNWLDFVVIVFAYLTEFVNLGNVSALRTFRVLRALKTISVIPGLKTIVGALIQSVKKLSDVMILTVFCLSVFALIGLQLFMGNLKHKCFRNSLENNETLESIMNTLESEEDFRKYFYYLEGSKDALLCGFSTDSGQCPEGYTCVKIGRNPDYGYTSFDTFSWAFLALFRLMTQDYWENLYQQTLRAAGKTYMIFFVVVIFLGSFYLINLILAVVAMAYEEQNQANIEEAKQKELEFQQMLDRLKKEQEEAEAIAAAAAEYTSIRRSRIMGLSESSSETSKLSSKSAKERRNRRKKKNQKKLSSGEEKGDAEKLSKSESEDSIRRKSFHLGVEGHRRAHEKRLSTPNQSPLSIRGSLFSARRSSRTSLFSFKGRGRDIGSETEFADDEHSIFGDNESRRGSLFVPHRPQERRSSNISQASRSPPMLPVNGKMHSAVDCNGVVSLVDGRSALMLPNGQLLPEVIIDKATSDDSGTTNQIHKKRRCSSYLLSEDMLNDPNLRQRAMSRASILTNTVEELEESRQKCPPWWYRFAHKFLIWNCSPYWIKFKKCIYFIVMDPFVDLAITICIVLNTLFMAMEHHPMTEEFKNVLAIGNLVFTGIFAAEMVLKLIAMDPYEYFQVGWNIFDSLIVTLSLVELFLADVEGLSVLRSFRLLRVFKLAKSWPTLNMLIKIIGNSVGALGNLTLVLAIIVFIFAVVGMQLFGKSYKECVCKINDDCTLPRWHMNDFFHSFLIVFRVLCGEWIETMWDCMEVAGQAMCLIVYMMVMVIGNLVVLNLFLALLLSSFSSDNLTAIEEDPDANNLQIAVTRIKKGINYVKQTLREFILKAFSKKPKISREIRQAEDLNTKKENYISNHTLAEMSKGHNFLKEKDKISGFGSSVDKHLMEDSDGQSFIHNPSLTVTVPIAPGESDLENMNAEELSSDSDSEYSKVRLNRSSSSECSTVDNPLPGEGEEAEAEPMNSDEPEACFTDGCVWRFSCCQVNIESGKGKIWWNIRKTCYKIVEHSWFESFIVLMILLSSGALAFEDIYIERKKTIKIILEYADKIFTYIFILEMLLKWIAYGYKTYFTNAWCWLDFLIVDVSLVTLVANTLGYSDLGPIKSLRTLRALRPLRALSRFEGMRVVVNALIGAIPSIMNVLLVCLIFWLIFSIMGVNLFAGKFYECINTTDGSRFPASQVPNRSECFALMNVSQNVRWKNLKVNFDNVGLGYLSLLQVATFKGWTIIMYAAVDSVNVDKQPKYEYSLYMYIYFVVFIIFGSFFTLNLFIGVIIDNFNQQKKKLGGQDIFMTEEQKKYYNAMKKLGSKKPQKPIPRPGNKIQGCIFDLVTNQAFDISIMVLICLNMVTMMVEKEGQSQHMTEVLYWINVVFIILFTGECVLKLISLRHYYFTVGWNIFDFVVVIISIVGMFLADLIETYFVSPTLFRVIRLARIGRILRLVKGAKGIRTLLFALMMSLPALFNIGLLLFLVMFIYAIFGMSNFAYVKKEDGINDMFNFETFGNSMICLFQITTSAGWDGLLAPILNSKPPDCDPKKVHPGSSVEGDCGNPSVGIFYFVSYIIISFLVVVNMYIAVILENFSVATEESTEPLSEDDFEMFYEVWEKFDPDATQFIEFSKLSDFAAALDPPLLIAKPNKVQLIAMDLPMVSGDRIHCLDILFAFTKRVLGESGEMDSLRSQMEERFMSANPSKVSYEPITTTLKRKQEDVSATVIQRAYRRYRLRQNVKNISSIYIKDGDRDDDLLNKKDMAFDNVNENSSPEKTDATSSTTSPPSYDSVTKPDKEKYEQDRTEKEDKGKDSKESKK

On to `Nc1nc(N2CCN3C(=O)COC[C@H]3C2)nnc1-c1cccc(Cl)c1Cl` [Compound 130, (R)-8-(5-amino-6-(2,3-dichlorophenyl)-1,2,4-triazin-3-yl)hexahydropyrazino[2,1-c][1,4]oxazin-4(3H)-one HCl salt], for which the IC50 in data set [1] (setting [3]) turned out to be 204 µM. For the same compound, the IC50 in data set [1] (read-out: Tonic state IC50) is greater than 200 µM. In data set [2], the “pharmacokinetics (qualitative ranking of the compounds tested)” value (“pharmacokinetics” for short) was “most favorable pharmacokinetics” and the “exposure after oral dosing (qualitative ranking)” value (from here on “exposure after oral dosing”) is given as “best exposure after oral dosing”.
The matching figures for `COC[C@H](O)CN1CCN(c2nnc(-c3cccc(Cl)c3Cl)c(N)n2)CC1` [Compound 96, (R)-1-(4-(5-amino-6-(2,3-dichlorophenyl)-1,2,4-triazin-3-yl)piperazin-1-yl)-3-methoxypropan-2-ol]: less than 50 µM, greater than 200 µM, “most favorable pharmacokinetics” and “best exposure after oral dosing”.
Take `Nc1nc(N2CCN(CCOCCO)CC2)nnc1-c1cccc(Cl)c1Cl` [Compound 201, 2-(2-(4-(5-amino-6-(2,3-dichlorophenyl)-1,2,4-triazin-3-yl)piperazin-1-yl)ethoxy)ethanol]: the figures for the IC50 in data set [1] (setting [4]) and in data set [1] (setting [5]) were 202 µM and greater than 200 µM, respectively. The “exposure after oral dosing” value in data set [2] is given as “best exposure after oral dosing”.
For `Nc1nc(N2CCNCC2)nnc1-c1cccc(Cl)c1Cl` [Compound 79, 6-(2,3-dichlorophenyl)-3-(piperazin-1-yl)-1,2,4-triazin-5-amine], the IC50 in data set [1] (setting [4]) was 95.3 µM; in data set [1] (setting [5]) it was greater than 200 µM. Besides, in data set [2], the “exposure after oral dosing” value is on record as “best exposure after oral dosing”.
Consider `Nc1nc(N2CCN3C(=O)OC[C@H]3C2)nnc1-c1cccc(Cl)c1Cl` [Compound 127, (R)-7-(5-amino-6-(2,3-dichlorophenyl)-1,2,4-triazin-3-yl)tetrahydro-1H-oxazolo[3,4-a]pyrazin-3(5H)-one], for which the IC50 in data set [1] (setting [3]) was greater than 300 µM. For the same compound, in data set [1] (read-out: Tonic state IC50), the IC50 was greater than 200 µM. In data set [2], the “pharmacokinetics” value is on record as “most favorable pharmacokinetics” and the “exposure after oral dosing” value is listed as “best exposure after oral dosing”.
`CCOC[C@H](O)CN1CCN(c2nnc(-c3cccc(Cl)c3Cl)c(N)n2)CC1` [Compound 55, (R)-1-(4-(5-Amino-6-(2,3-dichlorophenyl)-1,2,4-triazin-3-yl)piperazin-1-yl)-3-ethoxypropan-2-ol]: the IC50 in data set [1] (setting [4]) is 62.3 µM; in data set [1] (setting [5]), greater than 200 µM. Further, the “exposure after oral dosing” value in data set [2] is “best exposure after oral dosing”.
Consider `Nc1nc(N2CCN(CC(O)CO)CC2)nnc1-c1cccc(Cl)c1Cl` (stereo not shown) [Compound 92, 3-(4-(5-amino-6-(2,3-dichlorophenyl)-1,2,4-triazin-3-yl)piperazin-1-yl)propane-1,2-diol], for which the IC50 in data set [1] (setting [4]) is greater than 300 µM; in data set [1] (setting [5]), greater than 200 µM. Besides, in data set [2], the “exposure after oral dosing” value is “best exposure after oral dosing”.
As to `CC(C)(CO)N1CCN(c2nnc(-c3cccc(Cl)c3Cl)c(N)n2)CC1` [Compound 90, 2-(4-(5-amino-6-(2,3-dichlorophenyl)-1,2,4-triazin-3-yl)piperazin-1-yl)-2-methylpropan-1-ol], the IC50 in data set [1] (setting [3]) came out at 56.2 µM; in data set [1] (read-out: Tonic state IC50), 183 µM. Further, in data set [2], the “exposure after oral dosing” value was “best exposure after oral dosing”.
For the compound `Nc1nc(N2CC(OCC(F)(F)F)C2)nnc1-c1cccc(Cl)c1Cl` [Compound 99, 6-(2,3-dichlorophenyl)-3-(3-(2,2,2-trifluoroethoxy)azetidin-1-yl)-1,2,4-triazin-5-amine.HCl salt], the “exposure after oral dosing” value in data set [2] is “best exposure after oral dosing”.
`COC[C@@H](O)CN1CCN(c2nnc(-c3cccc(Cl)c3Cl)c(N)n2)CC1` [Compound 98, (S)-1-(4-(5-amino-6-(2,3-dichlorophenyl)-1,2,4-triazin-3-yl)piperazin-1-yl)-3-methoxypropan-2-ol]: the IC50 in data set [1] (setting [3]) was 57.5 µM and < 50 µM; in data set [1] (read-out: Tonic state IC50) it was greater than 200 µM. Further, the “exposure after oral dosing” value in data set [2] is given as “best exposure after oral dosing”.
With `CC(CO)N1CCN(c2nnc(-c3cccc(Cl)c3Cl)c(N)n2)CC1` (stereo not shown) [Compound 89, 2-(4-(5-amino-6-(2,3-dichlorophenyl)-1,2,4-triazin-3-yl)piperazin-1-yl)propan-1-ol], the IC50 in data set [1] (setting [4]) was 66.6 µM; in data set [1] (setting [5]) it was greater than 200 µM. In addition, in data set [2], the “exposure after oral dosing” value is recorded as “best exposure after oral dosing”.
On the same counts, the results for `CC(C)OC[C@H](O)CN1CCN(c2nnc(-c3cccc(Cl)c3Cl)c(N)n2)CC1` [Compound 73, (R)-1-(4-(5-Amino-6-(2,3-dichlorophenyl)-1,2,4-triazin-3-yl)piperazin-1-yl)-3-isopropoxypropan-2-ol] are less than 50 µM, 179 µM and “best exposure after oral dosing”.
On to `Nc1nc(N2CCN(C3CCOCC3)CC2)nnc1-c1cccc(Cl)c1Cl` [Compound 120, 3-N-(4-(tetrahydro-2H-pyran-4-yl)piperazin-1-yl) lamotrigine di HCl], for which, in data set [2], the “pharmacokinetics” value was “most favorable pharmacokinetics” and the “exposure after oral dosing” value is “best exposure after oral dosing”.
As for `Nc1nc(N2CC(O)(C(F)(F)F)C2)nnc1-c1cccc(Cl)c1Cl` [Compound 165, 3-N-(3-hydroxy-3-trifluoromethyl)azetidinyl lamotrigine], the “exposure after oral dosing” value in data set [2] is “best exposure after oral dosing”.
For `CC(C)(CO)Nc1nnc(-c2cccc(Cl)c2Cl)c(N)n1` [Compound 1, 2-((5-amino-6-(2,3-dichlorophenyl)-1,2,4-triazin-3-yl)amino)-2-methylpropan-1-ol], the concentration for half-maximal inhibition (IC50) in data set [1] (setting [4]) is 60.1 µM and < 50 µM; in data set [1] (setting [5]) it was > 200 µM and 197 µM. Further, in the data set with AFP model (Ph 2, timepoint 0.5 h, minimum effective dose), the “MED (mg/kg)” value is reported as 450 (Ph 2) mg/kg. For the same compound, in the data set on AFP model (Ph 2, timepoint 0.5 h, read-out: ED50), the ED50 was 589 mg/kg.
`C[C@@H]1CN(c2nnc(-c3cc(F)cc(Cl)c3Cl)c(N)n2)C[C@H](C)N1` [Compound 119, 3-N-(3′,5′-dimethylpiperazin-1-yl) 5′-fluoro lamotrigine]: in data set [2], the “exposure after oral dosing” value is recorded as “best exposure after oral dosing”.
Regarding `CS(=O)(=O)CCN1CCN(c2nnc(-c3cccc(Cl)c3Cl)c(N)n2)CC1` [Compound 202, 6-(2,3-dichlorophenyl)-3-(4-(2-(methylsulfonyl)ethyl)piperazin-1-yl)-1,2,4-triazin-5-amine], the IC50 in data set [1] (setting [3]) is greater than 300 µM; in data set [1] (read-out: Tonic state IC50), greater than 200 µM. The “exposure after oral dosing” value in data set [2] is “best exposure after oral dosing”.
Turning to `CC(CO)Nc1nnc(-c2cccc(Cl)c2Cl)c(N)n1` (stereo not shown) [Compound 182, 2-((5-amino-6-(2,3-dichlorophenyl)-1,2,4-triazin-3-yl)amino)propan-1-ol], the “exposure after oral dosing” value in data set [2] is “best exposure after oral dosing”.
In the case of `Nc1nc(N2CCN3C(=O)OC[C@@H]3C2)nnc1-c1cccc(Cl)c1Cl` [Compound 128, (S)-7-(5-amino-6-(2,3-dichlorophenyl)-1,2,4-triazin-3-yl)tetrahydro-1H-oxazolo[3,4-a]pyrazin-3(5H)-one HCl salt], the IC50 in data set [1] (setting [3]) is greater than 300 µM. Also, the IC50 in data set [1] (read-out: Tonic state IC50) was greater than 200 µM. For the same compound, in data set [2], the “pharmacokinetics” value is on record as “most favorable pharmacokinetics” and the “exposure after oral dosing” value is “best exposure after oral dosing”.
`COCCOCCOCC(C)Nc1nnc(-c2cccc(Cl)c2Cl)c(N)n1` (stereo not shown) [Compound 188, 6-(2,3-dichlorophenyl)-N3-(1-(2-(2-methoxyethoxy)ethoxy)propan-2-yl)-1,2,4-triazine-3,5-diamine.HCl]: in data set [2], the “exposure after oral dosing” value is reported as “best exposure after oral dosing”.
`C[C@@H]1CN(c2nnc(-c3cccc(Cl)c3Cl)c(N)n2)C[C@H](C)N1` [Compound 118, 3-N-(3′,5′-dimethylpiperazin-1-yl) lamotrigine]: the “exposure after oral dosing” value in data set [2] is on record as “best exposure after oral dosing”.
`Nc1nc(NCCOCCOCCOC(F)(F)F)nnc1-c1cccc(Cl)c1Cl` [Compound 167, 6-(2,3-dichlorophenyl)-N^3-(2-(2-(2-(trifluoromethoxy)ethoxy)ethoxy)ethyl)-1,2,4-triazine-3,5-diamine]: the IC50 is less than 50 µM in data set [1] (setting [4]); 108 µM and 91.5 µM and 130 µM in data set [1] (setting [5]). For the same compound, the “MED” value with AFP model (+ABT, timepoint 0.5 h, minimum effective dose) was determined as 100 mg/kg.
As for `Nc1nc(N2CCN(CCO)CC2)nnc1-c1cccc(Cl)c1Cl` [Compound 200, 2-(4-(5-amino-6-(2,3-dichlorophenyl)-1,2,4-triazin-3-yl)piperazin-1-yl)ethanol], the values for the IC50 in data set [1] (setting [4]) and in data set [1] (setting [5]) were 120 µM and greater than 200 µM, respectively. In data set [2], the “exposure after oral dosing” value is reported as “best exposure after oral dosing”.
